Entries after “also recorded” stand apart in the source; their conditions may differ. Read-outs that look alike come from different tables or passages of the source.
Tests used:
[1] = system: A549 cells; experiment: MTT cell proliferation assay, A549; type: cell-based; settings: Homo sapiens, read-out: IC50, cell viability (MTT)
Description: (§2) The human lung cancer A549, NCI-H460, NCI-H522 and NCI-H1299 cell lines were purchased from the Cell Resource Center of Shanghai Institutes for Biological Sciences, Chinese Academy of Sciences (Shanghai, P.R. China).
(§3) Cell proliferation was assessed using a colorimetric MTT assay as described previously [10]. […] After treatment, the viability of cells was evaluated by checking the absorbance at 570 nm.

[2] = system: NCI-H460 cells; experiment: MTT cell proliferation assay, NCI-H460; type: cell-based; settings: Homo sapiens, NCI-H460, 72 h, read-out: IC50 values, inhibiting proliferation
Description: as §2, §3

[3] = system: NCI-H522 cells; experiment: MTT cell proliferation assay, NCI-H522; type: cell-based; settings: Homo sapiens; NCI-H522, 72 h treatment; read-out: IC50 values, inhibiting proliferation
Description: as §2, §3

[4] = system: NCI-H1299 cells; experiment: MTT cell proliferation assay, NCI-H1299; type: cell-based; settings: Homo sapiens; NCI-H1299, 72 h treatment; read-out: IC50 values, inhibiting proliferation
Description: as §2, §3

[5] = system: A549 tumor xenografts; experiment: Human A549 tumor xenograft in nude mice; type: in vivo, Balb/c-nu-nu mice; settings: i.p., qd
Description: Male nude immunodeficient Balb/c-nu-nu mice, aged 6–7 weeks were purchased from the Shanghai Experimental Animal Center and housed in accordance with protocols approved by the Shanghai Institute of Materia Medica, Chinese Academy of Sciences. Generally, on day 0, A549 cells (8×10^6 cells) suspended in 0.1 mL of PBS were mixed with 0.1 mL Matrigel basement membrane matrix (BD Biosciences) and then inoculated s.c. in the right flank of each mouse. Tumors were allowed to reach 100–300 mm^3 in size before treatments were adminstered. In the animal experiment, the tumor size was measured every 3–4 days using calipers and the tumor volume was calculated using the standard formula, width^2×length/2. Body weight was measured daily.
Two experiments using nude mice with A549 tumor xenografts were conducted. In the first experiment, we tried to compare the anti-cancer effects of BF and BF211 at the same concentrations. Briefly, 12 days after inoculation, the mice were randomly divided into 6 groups (6 mice in each group) and began treatment with the vehicle control (natural saline, i.p., qd); a positive control (rapamycin, 10 mg/kg, i.v., once a week); BF at 0.8 mg/kg, i.p., qd; BF at 0.4 mg/kg for 7 days, which was then increased to 1.6 mg/kg for 9 days, i.p., qd; BF211 at 0.8 mg/kg, i.p., qd; BF211 at 0.4 mg/kg for 7 days, which was then increased to 1.6 mg/kg for 9 days, i.p., qd. In the second experiment, the anti-cancer effects of BF211 were determined at higher concentrations. Briefly, 15 days after inoculation, mice were randomly divided into 5 groups (10 mice in each group) and started treatment with the vehicle control (i.p., qd); a positive control (rapamycin, 10 mg/kg, i.v., once a week); BF211 at 2 mg/kg, i.p., qd; BF211 at 4 mg/kg, i.p., qd; BF211 at 6 mg/kg, i.p., qd. No mice died during this experimental period, and all animals were euthanized by CO2 inhalation at the end of the experiment.

[6] = target: recombinant extracellular portion of human Na+/K+-ATPase α1 subunit (Homo sapiens, UniProt P05023); experiment: SPR (Biacore 3000) binding, α1 subunit
Description: (§4) The recombinant extracellular portion of human Na+/K+-ATPase α1 subunit (M1-M2, M3-M4, M5-M6, M7-M8 and M9-M10) was expressed as a His-fusion protein using Escherichia coli, and purified by affinity chromatography. […] The BamH I-Hind III fragment of the gene was subcloned into a pET-32b expression vector (Novagen) and transformed into E. coli BL21 (DE3) cells (Novagen). The BL21 transformants were cultivated in LB medium with ampicillin to an A600 nm of 0.8 at 37°C. Expression was induced by adding isopropyl β-D-thiogalactopyranoside (IPTG) to a final concentration of 10 mM, and incubated overnight at 20°C. The fusion protein containing a His-tag was isolated from the bacterial lysates by Ni^2+-chelation affinity chromatography using a Bio-Scale™ Mini Profinity™ IMAC Cartridge (Bio-Rad). Finally, the recombinant protein was desalted using a Bio-Scale™ Mini Bio-Gel P-6 Desalting Cartridge (Bio-Rad). The recombinant extracellular portions of the α2 and α3 subunits of human Na+/K+-ATPase were also expressed and purified using similar methods.
(§5) Briefly, for the SPR assay, the α1, α2 or α3 subunit protein was immobilized on a CM5 sensor chip as a ligand with N-ethyl-N’-(3-dimethylaminopropyl) carbodiimide (EDC) and N-hydroxysuccinimide (NHS) according to standard primary amine-coupling procedures. […] HBS-EP (10 mM HEPES, 150 mM NaCl, 3 mM EDTA, and 0.005% (v/v) surfactant P20, pH 7.4) was used as the running buffer. The equilibration of the baseline was performed by a continuous flow of HBS-EP through the chip surface for 1 to 2 h. The Biacore data were collected at 25°C with HBS-EP as the running buffer at a constant flow of 30 μL/min. […] The binding responses were recorded continuously in response units (RU) at a frequency of 1 Hz in sensorgrams and presented as a function of time.

[7] = target: recombinant extracellular portion of human Na+/K+-ATPase α2 subunit (Homo sapiens, UniProt P50993); experiment: SPR (Biacore 3000) binding, α2 subunit
Description: as §4, §5

[8] = target: recombinant extracellular portion of human Na+/K+-ATPase α3 subunit (Homo sapiens, UniProt P13637); experiment: SPR (Biacore 3000) binding, α3 subunit
Description: as §4, §5

[9] = system: porcine cortex Na+/K+-ATPase; experiment: Na+/K+-ATPase activity (Pi liberated from ATP); type: biochemical; settings: for inhibition of the activity of porcine cortex Na+/K+-ATPase: different concentrations, 1 h incubation
Description: The activity of Na+/K+-ATPase was determined by measuring the amount of inorganic phosphate (Pi) liberated from ATP, as described previously. Briefly, a commercial Na+/K+-ATPase from porcine cerebral cortex (Sigma-Aldrich, USA) was incorporated into a reaction mixture containing 1 mM ATP, 5 mM MgCl2, 80 mM NaCl, 20 mM KCl, and 40 mM Tris-HCl (pH 7.8). The enzymatic reaction was terminated by adding trichloroacetic acid after the incubation period (1 h). After centrifugation, the supernatant was diluted with deionized water and then the color development reagent provided by the QuantiChrom™ Phosphate Assay Kit (BioAssay Systems, USA) was added. After 30 min of incubation at room temperature, the color intensity was measured at 620 nm on GENIOS reader (TEACAN, Switzerland). The Na+/K+-ATPase energy transducing activity was expressed as μmol Pi liberated from ATP by 1 mg of Na+/K+-ATPase in 1 h.

[10] = system: A549 cells; experiment: Annexin V/PI flow cytometry analysis of apoptosis; type: cell-based, human; settings: 24 h treatment
Description: Flow cytometric analysis of the level of apoptosis was conducted using Alexa Fluor 488 Annexin V & PI /Dead Cell Apoptosis Kit (Invitrogen) according to the manufacturer’s instructions. Briefly, after the 24 h treatment with BF or BF211 at different concentrations, the cells were collected, washed with PBS and resuspended in binding buffer. Then, the cells were incubated with Annexin V-FITC and propidium iodide for 15 min in the dark at room temperature, and flow cytometric analysis was conducted. Data analysis was performed with the CellQuest software.

[11] = system: A549 cells; experiment: Free intracellular Ca2+ level (Fluo-3 AM, flow cytometry); type: cell-based, human; settings: 50 nM
Description: The level of intracellular free Ca2+ in A549 cells was determined using the fluorescent dye Fluo-3 AM (S1056, Beyotime Biotechnology, Shanghai, China), which can cross the cell membrane and be cleaved into Fluo-3 by intracellular esterase. […] After being exposed to 50 nM BF or BF211 for 0.5, 1, 10, 30, 60 and 180 min, the cells were harvested, washed twice with PBS, and then incubated with Fluo-3 AM (5 μM) in the dark at 37°C for 1 h. After washing twice with PBS to remove the remaining extracellular probe, the cells were submitted to flow cytometric analysis with an excitation wavelength of 488nm. The quantification was conducted using the FlowJo software program based on the mean values of the peak fluorescent intensity.

[12] = system: Src; experiment: Western blot of Src activation (p-Src); type: cell-based, human; settings: A549 cells, 50 nM
Description: (§1) Western blot assays were conducted as described previously. Briefly, the cellular protein samples were denatured by mixing with equal volume of 2 × sample loading buffer and then boiling at 100°C for 5 min. An aliquot (50 μg as protein) of the supernatant was loaded onto a 12% SDS gel, separated electrophoretically, and transferred to a Nitrocellulose membrane (Bio-Rad). After the membrane was incubated with 10 mM TBS with 20% Tween 20 and 5% dehydrated skim milk to block nonspecific protein binding, the membrane was incubated with primary antibodies overnight at 4°C. The primary antibodies used for detection of α1 and α3 subunit of Na+,K+-ATPase were rabbit polyclonal antibody against human ATP1A1 (55187, Proteintech, 1:1000) and ATP1A3 (sc-374050, Santa Cruz Biotechnology, 1:1000), respectively. Other primary antibodies including rabbit polyclonal antibody against human Src (#2109S, 1:1000), phosphor-Src(Tyr416) (#6943S, 1: 1000); PI3K p85 (#4257P, 1:1000), phosphor-PI3K p85(Tyr458)/p55(Tyr199) (#4228P, 1: 600), Akt (#9272, 1:1000), phosphor-Akt(Ser473) (#4060S, 1:800), Bax (#2772S, 1:1000), Pro-caspase-9 (#9502S, 1:800), Caspase-3 (#9662S, 1:800); PARP (#9542, 1:1000) and GAPDH (#2118, 1:1000) were all purchased from Cell Signaling Technology. After TBS washes, blots were then incubated with HRP-linked goat anti-rabbit IgG (#7074, 1:1000) secondary antibody for 2 h at room temperature at a 1:1000 dilution and then visualized using chemiluminescence (Pierce Biotechnology, Rockford, IL, USA).

[13] = system: caspase-3, PARP; experiment: Western blot of caspase-3 activation and PARP cleavage; type: cell-based, human; settings: A549 cells, 24 h, different concentrations
Description: as §1, with “After TBS washes, blots were then incubated with HRP-linked goat anti-rabbit IgG (#7074, 1:1000) secondary antibody for 2 h at room temperature at a 1:1000 dilution and then visualized using chemiluminescence (Pierce Biotechnology, Rockford, IL, USA).” left out

[14] = system: caspase-3; experiment: Caspase-3 activity assay (Ac-DEVD-pNA); type: cell-based, human; settings: A549 cells, 24 h, different concentrations
Description: The activity of caspase-3 was determined using a caspase-3 activity assay kit (C1115, Beyotime Biotechnology, Shanghai, China) according to the manufacturer's instructions. Briefly, after treatment with BF or BF211 at different concentrations for 24 h, the A549 cells were collected, washed with PBS and incubated with lysis buffer on ice for 15 min. After centrifugation at 2,000 g for 15 min at 4°C, the cell lysates were collected, and their protein concentrations were determined using the A280 method with a UV-Vis Spectrophotometer Q5000 (Quawell Technology, San Jose, CA, USA). Cell lysates (50 μg protein) were then added to reaction buffer containing the caspase-3 substrate Ac-DEVD-p-nitroanilide (2 mM) in 96-well microtiter plates and incubated at 37°C for 4 h. The caspase-3 activity in the samples was quantified by detecting the release of p-nitroanilide from Ac-DEVD-p-nitroanilide with a microplate spectrophotometer at 405 nm. The caspase-3 activity was expressed as the fold of enzyme activity in comparison with the control.

[15] = system: ICR mice; settings: single dose i.p., Bliss method
Description: (§6) Therefore, totally 180 mice were used in the study of acute toxicity. […] During the 3 h observation period and other monitoring time periods, animals found in a moribund condition (head and body lying flat on cage bedding with little or no response to stimuli) and animals showing severe pain or severe distress (agonal breathing, intermittent gasping or both) were humanely killed. […] At the end of the experiment, all surviving animals were euthanized by CO2 inhalation. […] The LD50 value was calculated according to the Bliss method.

[16] = system: tumor cell lines; parameters: method as in PMID 26827628; settings: broad spectrum of tumor cell lines; ref [8]; cited from earlier work
[17] = in vivo; settings: ICR, mouse, ip
Description: as §6

[18] = system: ICR mice; settings: i.p., ref [14]; cited from earlier work
[19] = concentrations less than 2 mg/kg (0.8 mg/kg, or 0.4 then 1.6 mg/kg)

Chain of recombinant extracellular portion of human Na+/K+-ATPase α3 subunit (P13637 with tags, fused parts or gaps): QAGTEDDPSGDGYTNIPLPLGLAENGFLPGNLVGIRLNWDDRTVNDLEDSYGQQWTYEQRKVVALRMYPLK
Chain of recombinant extracellular portion of human Na+/K+-ATPase α2 subunit (P50993 with tags, fused parts or gaps): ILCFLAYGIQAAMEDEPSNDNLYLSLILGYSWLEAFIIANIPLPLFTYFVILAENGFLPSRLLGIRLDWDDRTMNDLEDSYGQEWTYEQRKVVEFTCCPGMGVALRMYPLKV

Structure (SMILES): C[C@]12CC[C@H](OC(=O)NC3CCNCC3)C[C@H]1CC[C@@H]1[C@@H]2CC[C@]2(C)[C@@H](c3ccc(=O)oc3)CC[C@]12O [BF211]
- IC50 ([1]; 24 h treatment): 6.76 ± 0.41 nM
- IC50 ([1]; 48 h treatment): 4.01 ± 2.68 nM
- IC50 [2]: 68 ± 6.91 nM
- IC50 [3]: 48.3 ± 0.69 nM
- IC50 [4]: 40.1 ± 4.04 nM
- effect on tumor growth ([5]; 6 mg/kg): almost totally blocked; also recorded: almost totally inhibited
- effect on growth of tumor xenografts ([5]; 2, 4, and 6 mg/kg): concentration-dependent inhibitive effects
- effect on growth of tumor xenografts ([5]; 4 or 6 mg/kg): strongly inhibited
- effect on tumor growth [5, 19]: weak inhibitive effects
- kon ([6]; read-out: Association (ka)): 17700 M⁻¹ s⁻¹
- koff ([6]; read-out: Dissociation (kd)): 0.0526 s⁻¹
- Kd ([6]; α1, SPR, KD = kd/ka, read-out: Equilibrium dissociation (KD)): 2960 nM
- kon ([7]; read-out: Association (ka)): 9820 M⁻¹ s⁻¹
- koff ([7]; read-out: Dissociation (kd)): 0.0441 s⁻¹
- Kd ([7]; α2, SPR, KD = kd/ka, read-out: Equilibrium dissociation (KD)): 4490 nM
- kon ([8]; 25°C, 1:1 Langmuir model, read-out: Association (ka)): 30700 M⁻¹ s⁻¹
- koff ([8]; 25°C, 1:1 Langmuir model, read-out: Dissociation (kd)): 0.116 s⁻¹
- Kd ([8]; KD = kd/ka, read-out: Equilibrium dissociation (KD)): 3780 nM
- inhibition of Na+/K+-ATPase activity compared with BF ([9]; at some concentrations, such as 0.1 μM): slightly weaker than BF
- inhibition of the activity of porcine cortex Na+/K+-ATPase [9]: concentration-dependent
- induction of apoptosis [10]: more strongly induced apoptosis than BF
- time of another (second) peak of intracellular Ca2+ level [11]: 1800 s
- time of peak intracellular Ca2+ level [11]: 0.5 min
- level of phosphorylated Src (p-Src) ([12]; 1 h after treatment): significant increase
- level of phosphorylated Src (p-Src) ([12]; 3 h after treatment): significant increase
- activation of caspase-3 and cleavage of PARP [13]: stronger than that of BF at high concentrations
- enzyme activity of caspase-3 [14]: significantly stronger than that of BF
- LD5 (95% confidence) ([15]; female mice): 12.03 mg/kg (10.04~14.41 mg/kg)
- LD95 (95% confidence) ([15]; female mice): 27.55 mg/kg (22.56~33.66 mg/kg)
- LD5 (95% confidence) ([15]; male mice): 9.52 mg/kg (7.81~11.61 mg/kg)
- LD95 (95% confidence) ([15]; male mice): 22.85 mg/kg (18.89~27.64 mg/kg)
- IC50 values, anticancer activities [16]: nanomolar level
- LD50 ([17]; female): 18.2 mg/kg
- LD50 ([17]; male): 14.8 mg/kg

Structure (SMILES): C[C@]12CC[C@H](O)C[C@H]1CC[C@@H]1[C@@H]2CC[C@]2(C)[C@@H](c3ccc(=O)oc3)CC[C@]12O [BF, Bufalin, reference compound]
- IC50 ([1]; 48 h treatment): 10.2 ± 1.01 nM
- IC50 [2]: 114 ± 11.2 nM
- IC50 [3]: 98.7 ± 2.76 nM
- IC50 [4]: 88.3 ± 11.9 nM
- effect on tumor growth [5, 19]: weak inhibitive effects
- inhibition of the activity of porcine cortex Na+/K+-ATPase [9]: concentration-dependent
- induction of apoptosis [10]: could induce apoptosis
- time of peak intracellular Ca2+ level [11]: 0.5 min
- level of phosphorylated Src (p-Src) ([12]; 1 h after treatment): significant increase
- activation of caspase-3 and cleavage of PARP [13]: could induce the activation of caspase-3 and the cleavage of PARP
- enzyme activity of caspase-3 [14]: increase in the activity of caspase-3
- LD50 [18]: 2.2 mg/kg
